Experimental data from patent publication US20060148774A1, “Hypoglycemic agent” (Riken, priority 2001, published 2006).

How the values were obtained:
c57BL db/db male mice [1] = assay: Urinary sugar by urinary test paper; type: in vivo; conditions: for urinary sugar, Positive ratio: + or higher positive
Body weight = type: in vivo; conditions: db/db mice, 0.3% in the feed, 19-week old
c57BL db/db male mice [2] = conditions: mouse, in vivo
Description: (§1) 6-Week old c57BL db/db male mice, as being a Type-2 diabetes model animal having homozygote diabetes pathogenic gene (db), were divided in three groups each consisting of 10 animals. A group of healthy c57BL db/+m male mice (10 animals) having heterozygote db gene was used as a control group. The animals were housed in plastic cages for mice at five animals per cage. The animals were fed under feeding conditions at a temperature of 24±1° C. and a relative humidity of 55±5%, where light and darkness were controlled to change every 12 hours, and each cage and bedding materials were exchanged twice a week. The animals were allowed to water ad libitum.
(§2) Feed CMF for mouse (Oriental Yeast Co.) was used as a basic feed, and 0.1% or 0.3% of 5-campesten-3-one was mixed to the feed to prepare an experimental feed. The resulting feeds were kept at 4° C. before the start of feeding.
(§3) The animals were autopsied, and the brain, lungs, heart, liver, spleen, pancreas, kidneys, adrenals, and testis were macroscopically examined and weighed.

c57BL db/db male mice [3] = assay: Change in blood sugar level in Type-2 diabetes model mice fed 5-campesten-3-one in the feed; type: in vivo; conditions: for blood sugar level relative to control group (second group): 0.1% in the feed
c57BL db/db male mice [4] = conditions: 19-week old
Description: as §1, §2, §3

c57BL db/db male mice [5] = assay: Oral glucose tolerance test (OGTT); type: in vivo; conditions: db/db mice 19-week old; for OGTT blood sugar level: glucose 2 g/kg oral
Description: The animals were allowed to water ad libitum.
For oral glucose tolerance test, the animals, starved for 16 hours from the night before of the end of the feeding (19-week old), were orally administered with glucose (2 g/kg), and the bloods were collected from orbital venous plexus at time 0 and after 60 and 120 minutes by using a capillary glass to measure blood sugar levels.

[6] = 0.1% in the feed, week 7 (period 0 week)
[7] = 0.1% in the feed, week 9 (period 2 weeks)
[8] = 0.1% in the feed, week 11 (period 4 weeks)
[9] = 0.1% in the feed, week 13 (period 6 weeks)
[10] = 0.1% in the feed, week 15 (period 8 weeks)
[11] = 0.1% in the feed, week 17 (period 10 weeks)
[12] = 0.3% in the feed, 7- to 17-week old
[13] = 0.3% in the feed, week 7 (period 0 week)
[14] = 0.3% in the feed, week 9 (period 2 weeks)
[15] = 0.3% in the feed, week 11 (period 4 weeks)
[16] = 0.3% in the feed, week 13 (period 6 weeks)
[17] = 0.3% in the feed, week 15 (period 8 weeks)
[18] = 0.3% in the feed, week 17 (period 10 weeks)

## CC(C)[C@H](C)CC[C@@H](C)[C@H]1CC[C@H]2[C@@H]3CC=C4CC(=O)CC[C@]4(C)[C@H]3CC[C@]12C [5-campesten-3-one]
c57BL db/db male mice [1]; 0.1% in the feed
  onset of positive urinary sugar: a delay in giving a positive result was observed
c57BL db/db male mice [1]; [6]
  urinary sugar, number of mice graded +: 1
  urinary sugar, number of mice graded ++: 0
  urinary sugar, number of mice graded +++: 4
  urinary sugar, number of mice graded ±: 1
  urinary sugar, number of mice graded −: 2
  urinary sugar, Positive ratio: 63%
c57BL db/db male mice [1]; [7]
  urinary sugar, number of mice graded +: 0
  urinary sugar, number of mice graded ++: 2
  urinary sugar, number of mice graded +++: 2
  urinary sugar, number of mice graded ±: 2
  urinary sugar, number of mice graded −: 1
  urinary sugar, Positive ratio: 57%
c57BL db/db male mice [1]; [8]
  urinary sugar, number of mice graded +: 1
  urinary sugar, number of mice graded ++: 0
  urinary sugar, number of mice graded +++: 7
  urinary sugar, number of mice graded ±: 0
  urinary sugar, number of mice graded −: 1
  urinary sugar, Positive ratio: 89%
c57BL db/db male mice [1]; [9]
  urinary sugar, number of mice graded +: 0
  urinary sugar, number of mice graded ++: 0
  urinary sugar, number of mice graded +++: 9
  urinary sugar, number of mice graded ±: 0
  urinary sugar, number of mice graded −: 0
  urinary sugar, Positive ratio: 100%
c57BL db/db male mice [1]; [10]
  urinary sugar, number of mice graded +: 0
  urinary sugar, number of mice graded ++: 1
  urinary sugar, number of mice graded +++: 8
  urinary sugar, number of mice graded ±: 0
  urinary sugar, number of mice graded −: 0
  urinary sugar, Positive ratio: 100%
c57BL db/db male mice [1]; [11]
  urinary sugar, number of mice graded +: 1
  urinary sugar, number of mice graded ++: 0
  urinary sugar, number of mice graded +++: 8
  urinary sugar, number of mice graded ±: 0
  urinary sugar, number of mice graded −: 0
  urinary sugar, Positive ratio: 100%
c57BL db/db male mice [1]; [12]
  positive ratio of urinary sugar, range over the test period: 14 to 70%
c57BL db/db male mice [1]; 0.3% in the feed, almost a half of the mice + (150 mg/dl) or ++ (500 mg/dl)
  positive degrees of urinary sugar compared to control group (second group): lower than the results of the control group
c57BL db/db male mice [1]; [13]
  urinary sugar, number of mice graded +: 0
  urinary sugar, number of mice graded ++: 0
  urinary sugar, number of mice graded +++: 1
  urinary sugar, number of mice graded ±: 0
  urinary sugar, number of mice graded −: 6
  urinary sugar, Positive ratio: 14%
c57BL db/db male mice [1]; [14]
  urinary sugar, number of mice graded +: 0
  urinary sugar, number of mice graded ++: 1
  urinary sugar, number of mice graded +++: 0
  urinary sugar, number of mice graded ±: 0
  urinary sugar, number of mice graded −: 4
  urinary sugar, Positive ratio: 20%
c57BL db/db male mice [1]; [15]
  urinary sugar, number of mice graded +: 0
  urinary sugar, number of mice graded ++: 2
  urinary sugar, number of mice graded +++: 3
  urinary sugar, number of mice graded ±: 1
  urinary sugar, number of mice graded −: 2
  urinary sugar, Positive ratio: 63%
c57BL db/db male mice [1]; [16]
  urinary sugar, number of mice graded +: 1
  urinary sugar, number of mice graded ++: 2
  urinary sugar, number of mice graded +++: 2
  urinary sugar, number of mice graded ±: 0
  urinary sugar, number of mice graded −: 5
  urinary sugar, Positive ratio: 50%
c57BL db/db male mice [1]; [17]
  urinary sugar, number of mice graded +: 1
  urinary sugar, number of mice graded ++: 1
  urinary sugar, number of mice graded +++: 2
  urinary sugar, number of mice graded ±: 1
  urinary sugar, number of mice graded −: 4
  urinary sugar, Positive ratio: 44%
c57BL db/db male mice [1]; [18]
  urinary sugar, number of mice graded +: 3
  urinary sugar, number of mice graded ++: 1
  urinary sugar, number of mice graded +++: 3
  urinary sugar, number of mice graded ±: 2
  urinary sugar, number of mice graded −: 1
  urinary sugar, Positive ratio: 70%
Body weight
  body weight compared to control group (second group): significantly higher
c57BL db/db male mice [2]
  general conditions during the experimental period: no abnormal findings such as diarrhea was observed
c57BL db/db male mice [3]; 9-week old
  blood sugar level relative to control group (second group): increased
c57BL db/db male mice [3]; 11-week old
  blood sugar level relative to control group (second group): decreased
c57BL db/db male mice [3]; 17-week old
  blood sugar level relative to control group (second group): lower level
c57BL db/db male mice [3]; [12]
  change with time in blood sugar level: almost constant level without a significant increase
c57BL db/db male mice [3]; 0.3% in the feed, 7-week old
  blood sugar level, initial value: 270 mg/dL
c57BL db/db male mice [3]; 0.3% in the feed, after 9-week old
  blood sugar level compared to control group (second group): significantly lower values at every measuring times after 9-week old
c57BL db/db male mice [4]; 0.1% and 0.3% in the feed, some mice with fat liver, as in the control db/db group
  autopsy of brain, heart, lungs, livers, pancreas, spleen, kidneys, adrenals: no particular abnormality was observed
c57BL db/db male mice [4]; 0.3% in the feed, untreated diabetic mice 50 to 60%
  weight of the testis (absolute weight) as % of that of the healthy mice (first group): 85%
c57BL db/db male mice [5]; 0.1% in the feed, every measuring point
  OGTT blood sugar levels compared to second group: significantly lower than the levels of the second group at every measuring points
c57BL db/db male mice [5]; 0.1% in the feed, 60 minutes
  OGTT blood sugar level: 703 mg/dL
c57BL db/db male mice [5]; 0.1% in the feed, 120 minutes
  OGTT blood sugar level: 558 mg/dL
c57BL db/db male mice [5]; 0.1% in the feed, time 0
  OGTT blood sugar level: 497 mg/dL
c57BL db/db male mice [5]; 0.3% in the feed, 60 minutes
  OGTT blood sugar level: almost the same 60-munites value as that of the third group
c57BL db/db male mice [5]; 0.3% in the feed, 120 minutes
  OGTT blood sugar level: 440 mg/dL
c57BL db/db male mice [5]; 0.3% in the feed, time 0
  OGTT blood sugar level: 282 mg/dL
